Columns and labels:
[1] = molecular target: T1, Tyrosinase (Agaricus bisporus) (UniProt O42713); experiment: Inhibition of mushroom tyrosinase at 15 uM
T1 sequence (whole entry): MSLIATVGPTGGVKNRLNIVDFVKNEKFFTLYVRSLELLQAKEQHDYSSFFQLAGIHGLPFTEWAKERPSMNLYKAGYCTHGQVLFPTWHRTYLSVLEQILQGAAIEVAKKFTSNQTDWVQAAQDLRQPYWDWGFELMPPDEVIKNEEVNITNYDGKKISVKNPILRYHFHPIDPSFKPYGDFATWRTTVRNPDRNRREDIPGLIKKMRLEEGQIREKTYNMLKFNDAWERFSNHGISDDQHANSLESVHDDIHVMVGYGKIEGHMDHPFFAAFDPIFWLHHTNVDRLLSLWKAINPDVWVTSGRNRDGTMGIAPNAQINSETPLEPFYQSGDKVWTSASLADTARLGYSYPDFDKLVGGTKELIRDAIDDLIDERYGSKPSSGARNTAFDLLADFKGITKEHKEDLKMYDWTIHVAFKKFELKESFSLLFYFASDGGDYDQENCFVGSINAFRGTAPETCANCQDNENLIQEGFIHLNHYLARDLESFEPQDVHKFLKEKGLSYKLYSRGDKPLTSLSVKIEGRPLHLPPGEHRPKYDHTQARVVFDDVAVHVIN

[2] = molecular target: T1, Tyrosinase (Agaricus bisporus); experiment: Inhibition of mushroom tyrosinase at 1.7 uM
[3] = (§1) Decrease of pigmentation in human MNT1 cells at 15 uM after 4 days; type: functional; details: MNT-1, 96 h
Tyrosinase = molecular target: T2, Tyrosinase (Agaricus bisporus, UniProt O42713); experiment: Inhibition of mushroom tyrosinase
T2 sequence (O42713 whole entry): T1 sequence (whole entry)

MNT1 = experiment: as §1; type: functional

Row | Structure (SMILES) | inhibition [1] | inhibition [2] | inhibition at 15 µM [3] | IC50 (Tyrosinase) | Activity (MNT1)
1 | O=S(=O)(c1ccc(NC(=S)Nc2ccccc2)cc1)N1CCCCC1 | 48% | 23% | 56% | – | –
2 | COc1ccc2nc(SCC(=O)Nc3ccc4c(c3)OCCO4)[nH]c2c1 | 43% | 40% | 34% | – | –
3 | S=c1[nH]c(-c2ccc3c(c2)OCO3)cn1-c1ccc(Oc2ccccc2)cc1 | 54% | 41% | 44% | – | –
4 | O=C(O)c1cccc(Nc2nc(-c3ccc(O)cc3O)cs2)c1 | – | – | -6% | – | –
5 | COc1ccc(-c2nc(-c3ccc(O)cc3O)cs2)c(OC)c1 | – | – | 91% | 2000 nM | –
6 | Oc1ccc(-c2csc(Nc3ccccn3)n2)c(O)c1 | – | – | 54% | – | –
7 | Cc1ccnc(Nc2nc(-c3ccc(O)cc3O)cs2)c1 | – | – | 83% | 100 nM | –
8 | C/C(=N\NC(=N)SC1CC(=O)N(c2ccc(Cl)cc2)C1=O)c1cccs1 (stereo not drawn) | 40% | 25% | 19% | – | –
9 | CC(=O)Nc1ccc(Nc2nc(-c3c(C)nc4ccc(C)cn34)cs2)cc1 | 46% | 36% | – | – | Toxic
10 | Cc1ccc(-c2csc(Nc3cc(C)ccn3)n2)cc1 | – | – | 75% | – | –
11 | C/C(=N\NC(=S)Nc1cccc(C)c1)c1cccc(N)c1 | 52% | 44% | 38% | – | –
12 | Cc1cccnc1Nc1nc(-c2ccc(O)cc2O)cs1 | – | – | 74% | – | –
13 | Cc1ccccc1NC(=O)CSC(N)=O | 66% | 47% | -15% | – | –
14 | Cc1ccn2c(-c3csc(Nc4ccccn4)n3)c(C)nc2c1 | – | – | 48% | – | –
15 | CCCCCOc1ccc(NC2=C(N3CCCC3)C(=O)c3ccccc3C2=O)cc1 | 51% | 47% | 48% | – | –
